{
  "source": "patent US20090012101A1",
  "about": "“Mucarinic Agonists and Methods of Use Thereof” (UNIVERSITY OF TOLEDO, priority 2005, published 2009)",
  "origin": "cited, not measured here",
  "key": {"M2 receptors": {"biological_target": "T1, M2 receptors (Homo sapiens, UniProt P08172)", "T1 sequence (P08172 1-466)": "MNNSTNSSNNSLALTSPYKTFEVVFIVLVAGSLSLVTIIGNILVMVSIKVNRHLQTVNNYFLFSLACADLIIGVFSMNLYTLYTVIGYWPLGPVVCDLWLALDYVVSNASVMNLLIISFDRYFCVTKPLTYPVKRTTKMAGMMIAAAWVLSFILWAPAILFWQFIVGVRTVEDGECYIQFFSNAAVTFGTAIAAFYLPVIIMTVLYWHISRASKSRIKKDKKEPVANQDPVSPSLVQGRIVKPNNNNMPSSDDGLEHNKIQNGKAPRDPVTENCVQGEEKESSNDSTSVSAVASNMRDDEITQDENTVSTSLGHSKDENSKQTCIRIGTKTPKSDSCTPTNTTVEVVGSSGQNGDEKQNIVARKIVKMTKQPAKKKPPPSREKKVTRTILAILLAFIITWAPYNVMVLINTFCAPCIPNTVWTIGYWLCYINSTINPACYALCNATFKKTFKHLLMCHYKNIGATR"}, "M4 receptors": {"biological_target": "T2, M4 receptors (Homo sapiens, UniProt P08173)", "T2 sequence (P08173 1-479)": "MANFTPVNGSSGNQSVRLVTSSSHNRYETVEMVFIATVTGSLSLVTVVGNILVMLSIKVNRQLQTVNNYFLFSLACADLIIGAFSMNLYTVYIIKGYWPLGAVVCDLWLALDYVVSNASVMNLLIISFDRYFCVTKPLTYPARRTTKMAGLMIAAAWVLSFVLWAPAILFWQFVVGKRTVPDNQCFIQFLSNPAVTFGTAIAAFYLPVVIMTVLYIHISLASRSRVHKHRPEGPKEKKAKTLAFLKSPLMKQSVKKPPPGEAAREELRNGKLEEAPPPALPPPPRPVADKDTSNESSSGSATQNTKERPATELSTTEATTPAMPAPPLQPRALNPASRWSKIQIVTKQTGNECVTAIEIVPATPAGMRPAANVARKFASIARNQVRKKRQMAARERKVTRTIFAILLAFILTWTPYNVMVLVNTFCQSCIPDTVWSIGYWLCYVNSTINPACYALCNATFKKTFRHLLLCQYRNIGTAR"}, "[1]": {"settings": "preclinical studies"}},
  "data": [
    {"smiles": "CCCCSc1nsnc1[C@H]1CN2CCC[C@H]1C2", "note": "[BuTAC, (5R,6R)-6-(3-butylthio-1,2,5-thiadiazol-4-yl)-1-azabicyclo[3.2.1]octane]", "values": [
      {"measurement": "agonist activity at M2 receptors", "setting": "M2 receptors", "result": "partial agonist activity"},
      {"measurement": "agonist activity at M4 receptors", "setting": "M4 receptors", "result": "partial agonist activity"},
      {"measurement": "antipsychotic activity", "setting": "[1]", "result": "strong antipsychotic activity"}
    ]},
    {"smiles": "CCCCCCOc1nsnc1C1=CCCN(C)C1", "note": "[xanomeline]", "values": [
      {"measurement": "unwanted side effects associated with activation of M3 receptors", "result": "salivation, diarrhea and profuse sweating"},
      {"measurement": "effect on psychiatric symptoms such as hallucinations", "setting": "phase II clinical trials, Alzheimer's patients", "result": "significantly improved psychiatric symptoms"}
    ]}
  ]
}
